Assay results published in PubChem BioAssay AID1918944 (Molecular Pharmacology Branch, DTP, NCI, 2023).

System: 786-0 complex spheroid viability
Assay: Anticancer human tumor 786-0 cell line growth inhibition;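 also: spheroids exposed to agents for seven days before readout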
Conditions: for IC50: curve of first compound; for viability, T/C: stronger effect = lower value
In short: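 Drug combinations with the LSD1 inhibitor iadademstat tested on tumor cells co-cultured as spheroids with endothelial cells and mesenchymal stem cells. Concentrations descended in half-log increments from clinical Cmax or 10 microM.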

[1] = second compound 0.1 µM, first compound 0.0316 µM
[2] = second compound 0.1 µM, first compound 0.1 µM
[3] = second compound 0.1 µM, first compound 0.316 µM
[4] = second compound 0.1 µM, first compound 1 µM
[5] = second compound 0.316 µM, first compound 0.0316 µM
[6] = second compound 0.316 µM, first compound 0.1 µM
[7] = second compound 0.316 µM, first compound 0.316 µM
[8] = second compound 0.316 µM, first compound 1 µM
[9] = second compound 1 µM, first compound 0.0316 µM
[10] = second compound 1 µM, first compound 0.1 µM
[11] = second compound 1 µM, first compound 0.316 µM
[12] = second compound 1 µM, first compound 1 µM
[13] = second compound 3.16 µM, first compound 0.0316 µM
[14] = second compound 3.16 µM, first compound 0.1 µM
[15] = second compound 3.16 µM, first compound 0.316 µM
[16] = second compound 3.16 µM, first compound 1 µM
[17] = second compound 10 µM, first compound 0.0316 µM
[18] = second compound 10 µM, first compound 0.1 µM
[19] = second compound 10 µM, first compound 0.316 µM
[20] = second compound 10 µM, first compound 1 µM

Structure (SMILES): CC1COCCN1c1cc(C2(S(C)(=N)=O)CC2)nc(-c2ccnc3[nH]ccc23)n1 (stereo not given) + NC1CC1c1ccc(-c2cccc(O)c2)cc1
- IC50 (second compound 0.1 µM): 943 nM
- IC50 (second compound 0.316 µM): 1020 nM
- IC50 (second compound 1 µM): 933 nM
- IC50 (second compound 3.16 µM): 819 nM
- IC50 (second compound 10 µM): 751 nM
- viability, T/C [1]: 99.5%
- viability, T/C [2]: 107%
- viability, T/C [3]: 89.1%
- viability, T/C [4]: 47.4%
- viability, T/C (second compound 0.1 µM, first compound 3.16 µM): 22.8%
- viability, T/C (second compound 0.1 µM, first compound 10 µM): 14.4%
- viability, T/C [5]: 114%
- viability, T/C [6]: 110%
- viability, T/C [7]: 98.8%
- viability, T/C [8]: 49.7%
- viability, T/C (second compound 0.316 µM, first compound 3.16 µM): 22.7%
- viability, T/C (second compound 0.316 µM, first compound 10 µM): 14.8%
- viability, T/C [9]: 101%
- viability, T/C [10]: 102%
- viability, T/C [11]: 88%
- viability, T/C [12]: 46.4%
- viability, T/C (second compound 1 µM, first compound 3.16 µM): 22.9%
- viability, T/C (second compound 1 µM, first compound 10 µM): 12.8%
- viability, T/C [13]: 94.5%
- viability, T/C [14]: 101%
- viability, T/C [15]: 86%
- viability, T/C [16]: 41.8%
- viability, T/C (second compound 3.16 µM, first compound 3.16 µM): 22.9%
- viability, T/C (second compound 3.16 µM, first compound 10 µM): 14.6%
- viability, T/C [17]: 99%
- viability, T/C [18]: 95.2%
- viability, T/C [19]: 81.3%
- viability, T/C [20]: 38.1%
- viability, T/C (second compound 10 µM, first compound 3.16 µM): 25.6%
- viability, T/C (second compound 10 µM, first compound 10 µM): 13.4%

Structure (SMILES): CC1COCCN1c1cc(-c2ccnn2C)c2ccnc(-c3ccn[nH]3)c2n1 (stereo not given) + NC1CC1c1ccc(-c2cccc(O)c2)cc1
- IC50 (second compound 0.1 µM): 47.9 nM
- IC50 (second compound 0.316 µM): 45.3 nM
- IC50 (second compound 1 µM): 44.1 nM
- IC50 (second compound 3.16 µM): 30.7 nM
- IC50 (second compound 10 µM): 17.4 nM
- viability, T/C (second compound 0.1 µM, first compound 0.00316 µM): 119%
- viability, T/C (second compound 0.1 µM, first compound 0.01 µM): 108%
- viability, T/C [1]: 63.8%
- viability, T/C [2]: 25.9%
- viability, T/C [3]: 16.2%
- viability, T/C [4]: 17.9%
- viability, T/C (second compound 0.316 µM, first compound 0.00316 µM): 115%
- viability, T/C (second compound 0.316 µM, first compound 0.01 µM): 107%
- viability, T/C [5]: 62.5%
- viability, T/C [6]: 22.7%
- viability, T/C [7]: 15%
- viability, T/C [8]: 17.3%
- viability, T/C (second compound 1 µM, first compound 0.00316 µM): 111%
- viability, T/C (second compound 1 µM, first compound 0.01 µM): 111%
- viability, T/C [9]: 61.5%
- viability, T/C [10]: 22.6%
- viability, T/C [11]: 15.8%
- viability, T/C [12]: 17%
- viability, T/C (second compound 3.16 µM, first compound 0.00316 µM): 112%
- viability, T/C (second compound 3.16 µM, first compound 0.01 µM): 98.5%
- viability, T/C [13]: 48.2%
- viability, T/C [14]: 23.1%
- viability, T/C [15]: 15%
- viability, T/C [16]: 18.4%
- viability, T/C (second compound 10 µM, first compound 0.00316 µM): 103%
- viability, T/C (second compound 10 µM, first compound 0.01 µM): 70.2%
- viability, T/C [17]: 28.4%
- viability, T/C [18]: 17%
- viability, T/C [19]: 12.9%
- viability, T/C [20]: 19.6%
